Results on six compounds are retold here after US20120283302A1, “SCCA-1 PRODUCTION INHIBITOR HAVING A CARBOXAMIDE DERIVATIVE AND/OR A SALT THEREOF AS AN ACTIVE INGREDIENT” (SHISEIDO COMPANY, LTD, priority 2009, published 2012).

SMILES strings stand for the structures.

Experiment [1] relates to Human SCCA1. Kind of experiment: SCCA-1 expression-inhibiting effect in cultured human keratinocytes (quantitative PCR, G3PDH internal standard). The class given is cell-based. The conditions noted are these: 24 hours after addition at different concentrations, vs no-drug negative control, FIG. 1-3. As to the method: SCCA-1 expression-inhibiting effects of carboxyamide derivatives in cell line:
Human keratinocytes were cultured, and carboxyamide derivatives at different concentrations were added at 60-70% confluency. The carboxyamide derivatives used were the following:
After 24 hours, the RNA was obtained, and then it was subjected to a quantitative PCR analysis by ABI PRISM 7900HT Sequence Detector System (Taqman PE) (Applied Biosystems) with using a primer/probe combination shown below, thereby the amount of SCCA gene expression was measured (using G3PDH as the internal standard). • Human SCCA1 • Forward primer: 5′-GTGCTATCTGGAGTCCT-3′ (SEQ ID NO: 1) • Reverse primer: 5′-CTGTTGTTGCCAGCAA-3′ (SEQ ID NO: 2) • Probe: 5′-CATCACCTACTTCAACT-3′ (SEQ ID NO: 3) • Human G3PDH • Forward primer: 5′-GAAGGTGAAGGTCGGAGTC-3′ (SEQ ID NO: 4) • Reverse primer: 5′-[…]-3′ (SEQ ID NO: 5) • Probe: 5′-[…]-3′ (SEQ ID NO: 6)

In experiment [2] the test system is SCAA-2. The note with it: known from Japanese Patent Application No. 2008-903571; cited from earlier work.
The subject of experiment [3] is SCAA-1. The note with it: known from Japanese Patent Application No. 2008-903571; cited from earlier work.

Turning to `O=C1CCCN1CCO` [1-(2-hydroxyethyl)-2-pyrrolidone], the SCCA-1 gene expression result in experiment [1] is listed as “significant dose-dependent reduction in SCCA-1 gene expression”.
As for `O=C1NCCN1` [ethyleneurea], in experiment [1], the SCCA-1 gene expression entry was “significant dose-dependent reduction in SCCA-1 gene expression”.
On to `O=C1NCCN1CCO` [1-(2-hydroxyethyl)-2-imidazolidinone], for which, in experiment [1], the SCCA-1 gene expression result is on record as “significant dose-dependent reduction in SCCA-1 gene expression”.
Consider `NC(N)=O` [urea], for which the SCCA-1 gene expression result in experiment [1] is listed as “significant dose-dependent reduction in SCCA-1 gene expression”.
Same read-out and setting: the result for `NC(=O)NC1NC(=O)NC1=O` (stereo not shown) [allantoin] reads “significant dose-dependent reduction in SCCA-1 gene expression”.
For the compound `O=C(O)CCN1CCCCC1` [1-piperidinepropionic acid (1-PP), 1-piperidinepropionic acid], the “gene expression-inhibiting effect on SCAA-2” value in experiment [2] is recorded as “gene expression-inhibiting effect”. The “gene expression-inhibiting effect on SCAA-1” value in experiment [3] is reported as “gene expression-inhibiting effect”.
